Data reported in ChEMBL document CHEMBL4270495, “Oleanane-, ursane-, and quinone methide friedelane-type triterpenoid derivatives: Recent advances in cancer treatment” (Eur J Med Chem, 2017).
pIC50: −log10 of the molar value.

Key:
RAW264.7 = assay: Anti-inflammatory activity in mouse RAW264.7 cells assessed as inhibition of nitric oxide production; assay type: functional, cell-based
A549 = assay: Cytotoxicity in human A549 cells assessed as reduction in cell viability incubated for 48 hrs by MTT assay; assay type: functional, cell-based; conditions: A549, 48 h
[1] = Cytotoxicity in human SPCA2 cells assessed as reduction in cell viability incubated for 48 hrs by MTT assay; assay type: functional, cell-based; conditions: SPCA2, 48 h
T-24 = assay: Cytotoxicity in human T24 cells assessed as reduction in cell viability incubated for 48 hrs by MTT assay; assay type: functional, cell-based; conditions: T-24, 48 h
HUVEC = assay: Cytotoxicity in HUVEC cells assessed as reduction in cell viability incubated for 48 hrs by MTT assay; assay type: cell-based; conditions: Homo sapiens
NCI-H446 = assay: Cytotoxicity in human NCI-H446 cells assessed as reduction in cell viability incubated for 24 hrs by MTT assay; assay type: functional, cell-based; conditions: NCI-H446, 24 h
HepG2 = assay: Cytotoxicity in human HepG2 cells assessed as reduction in cell viability incubated for 24 hrs by MTT assay; assay type: functional, cell-based; conditions: HepG2, 24 h
A-375 = assay: Cytotoxicity in human A375 cells assessed as reduction in cell viability incubated for 24 hrs by MTT assay; assay type: functional, cell-based; conditions: A-375, 24 h
HeLa = assay: Cytotoxicity in human HeLa cells assessed as reduction in cell viability incubated for 72 hrs by CCK8 assay; assay type: functional, cell-based

| Structure (SMILES) | pIC50 (RAW264.7) | pIC50 (A549) | pIC50 [1] | pIC50 (T-24) | pIC50 (HUVEC) | other results |
| --- | --- | --- | --- | --- | --- | --- |
| C[C@H]1[C@H](C)CC[C@@]23CC[C@@]4(C)[C@]5(C)CC[C@H]6C(C)(C)C(=O)C(C#N)=C[C@]6(C)C5=CC(=O)[C@]4(OC2=O)[C@H]13 | 5.10 | – | – | – | – | – |
| CCOP(=O)(OCC)C(NC(=O)[C@]12CC[C@@H](C)[C@H](C)[C@H]1C1=CC[C@@H]3[C@@]4(C)C[C@@H](OC(C)=O)[C@H](OC(C)=O)[C@@](C)(COC(C)=O)[C@@H]4CC[C@@]3(C)[C@]1(C)CC2)c1ccccc1Cl (stereo partly drawn) | – | 4.83 | 4.82 | 5.18 | < 4.00 | – |
| C[C@@H]1CC[C@]2(C(=O)NC(Cc3c[nH]c4ccccc34)C(=O)O)CC[C@]3(C)C(=CC(=O)[C@@H]4[C@@]5(C)CC[C@H](O)[C@](C)(CO)[C@@H]5CC[C@]43C)[C@@H]2[C@]1(C)O (stereo partly drawn) | – | – | – | – | – | pIC50 (NCI-H446): 4.95; pIC50 (HepG2): 5.21; pIC50 (A-375): 5.10 |
| COC(=O)C1CCCN1C(=O)[C@]12CC[C@@H](C)[C@H](C)[C@H]1C1=CC[C@@H]3[C@@]4(C)C[C@@H](O)[C@H](O)[C@@](C)(CO)[C@@H]4CC[C@@]3(C)[C@]1(C)CC2 (stereo partly drawn) | – | – | – | – | – | pIC50 (HeLa): 4.67 |
| COC(=O)[C@]12CC[C@@H](C)[C@H](C)[C@H]1C1=CC[C@@H]3[C@@]4(C)C=C(C#N)C(=O)C(C)(C)[C@@H]4CC[C@@]3(C)[C@]1(C)CC2 | 4.77 | – | – | – | – | – |
| CC1(C)CC[C@]2(C(=O)n3ccnc3)CC[C@]3(C)[C@H](C(=O)C=C4[C@@]5(C)C=C(C#N)C(=O)C(C)(C)[C@@H]5CC[C@]43C)[C@@H]2C1 | 6.00 | – | – | – | – | – |
| CCOP(=O)(OCC)C(NC(=O)[C@]12CC[C@@H](C)[C@H](C)[C@H]1C1=CC[C@@H]3[C@@]4(C)C[C@@H](OC(C)=O)[C@H](OC(C)=O)[C@@](C)(COC(C)=O)[C@@H]4CC[C@@]3(C)[C@]1(C)CC2)c1ccc2ccccc2c1 (stereo partly drawn) | – | 4.33 | 4.31 | 4.31 | < 4.00 | – |
| C[C@H]1[C@H](C)CC[C@]2(C#N)CC[C@]3(C)C(=CC[C@@H]4[C@@]5(C)C=C(C#N)C(=O)C(C)(C)[C@@H]5CC[C@]43C)[C@H]12 | 5.15 to 6.00 | – | – | – | – | – |
| CCOP(=O)(OCC)C(NC(=O)[C@]12CC[C@@H](C)[C@H](C)[C@H]1C1=CC[C@@H]3[C@@]4(C)C[C@@H](OC(C)=O)[C@H](OC(C)=O)[C@@](C)(COC(C)=O)[C@@H]4CC[C@@]3(C)[C@]1(C)CC2)c1ccc(Cl)cc1 (stereo partly drawn) | – | 4.80 | 4.79 | 5.05 | < 4.00 | – |
| C[C@H]1[C@H](C)CC[C@]2(C(=O)n3ccnc3)CC[C@]3(C)C(=CC[C@@H]4[C@@]5(C)C=C(C#N)C(=O)C(C)(C)[C@@H]5CC[C@]43C)[C@H]12 | 5.30 | – | – | – | – | – |
| COC(=O)[C@]12CCC(C)(C)C[C@H]1[C@H]1C(=O)C=C3[C@@]4(C)C=C(C#N)C(=O)C(C)(C)[C@@H]4CC[C@@]3(C)[C@]1(C)CC2 [BARDOXOLONE METHYL] | 5.40 | – | – | – | – | – |
| CCOP(=O)(OCC)C(NC(=O)[C@]12CC[C@@H](C)[C@H](C)[C@H]1C1=CC[C@@H]3[C@@]4(C)C[C@@H](OC(C)=O)[C@H](OC(C)=O)[C@@](C)(COC(C)=O)[C@@H]4CC[C@@]3(C)[C@]1(C)CC2)c1cccc2ccccc12 (stereo partly drawn) | – | 4.26 | 4.34 | 4.36 | < 4.00 | – |
| O=c1[nH]cc(F)c(=O)[nH]1 [FLUOROURACIL] | – | 4.46 | 4.35 | 4.40 | 4.25 | – |
| COC(=O)C(CO)NC(=O)[C@]12CC[C@@H](C)[C@@](C)(O)[C@H]1C1=CC(=O)[C@@H]3[C@@]4(C)CC[C@H](OC(C)=O)[C@](C)(COC(C)=O)[C@@H]4CC[C@@]3(C)[C@]1(C)CC2 (stereo partly drawn) | – | – | – | – | – | pIC50 (NCI-H446): 5.42; pIC50 (HepG2): 5.47; pIC50 (A-375): 5.22 |
